Test results as given in patent US10428081B2, “EGFR inhibitor, preparation method and use thereof” (Shanghai Hansoh Biomedical Co., Ltd., priority 2014, dated 2019).

Legend:
[1] = molecular target: exon 20 T790M mutant-type EGFR enzyme (Homo sapiens, UniProt P00533, T790M); experiment: Enzymologic experiment of T790M mutant-type EGFR (TR-FRET); format: biochemical; conditions: for IC50: T790M EGFR enzyme, TR-FRET, ATP 1 to 10 uM; for Selectivity of wild-type/mutant-type: ratio WT IC50 / T790M IC50, enzyme
Experimental: (§1) 2) 1 to 5 μL of diluted solution in gradient of the compound was added.
(§2) 3) The mixture was incubated for 10 minutes at room temperature.
(§3) 6) 5 μL of EDTA stop solution was added to terminate the reaction for 5 minutes.
7) […] of a test solution containing the labeled antibody was added, and the mixture was incubated at room temperature for 1 hour.
9) The inhibition rates were calculated according to the fluorescence signal values.
(§4) 10) The IC50 of the compound was obtained by curve fitting according to the inhibition rates at different concentrations.

wild-type EGFR enzyme = wild-type EGFR enzyme (Homo sapiens, UniProt P00533); experiment: Enzymologic experiment of wild-type (WT) EGFR (TR-FRET); format: biochemical; conditions: ATP 0.1 to 5 uM
Experimental: 2. Enzymologic Experiment of Wild-Type (WT) EGFR
In this experiment, the inhibitory effect of compounds on wild-type EGFR enzyme was tested by a fluorescence resonance energy transfer (TR-FRET) method, and the half maximal inhibitory concentration IC50 of the compounds on enzymatic activity was determined.
1) 1 to 5 μL of wild-type EGFR enzyme solution was added to a 384-well plate, and the final concentration of the enzyme was 0.1 to 1 nM.
as §1, §2, §3
7) 5 μL of a test solution containing the labeled antibody was added, and the mixture was incubated at room temperature for 1 hour.
9) The inhibition rates were calculated from the fluorescence signal values.
as §4

NCI-H1975 cells = experiment: Inhibition of NCI-H1975 cell proliferation (CellTiter-Glo); format: cell-based; conditions: Homo sapiens, NCI-H1975, 72 h, NCI-H1975 cell proliferation, 72 hours, CellTiter-Glo; read-out: EGFR IC50 (nM) H1975
Experimental: 3. Experiment on the Inhibition of NCI-H1975 Cell Proliferation
In this experiment, the inhibitory effect of the compounds on NCI-H1975 cell proliferation was tested by a CellTiter-Glo method, and the half maximal inhibitory concentration (IC50) of the compounds on the activity of cell proliferation was determined.
The culture plate was incubated in an incubator for 16 to 24 hours (37° C., 5% CO2).
2) Different concentrations of the test compound in a gradient dilution were added to the cells in the culture plate. The culture plate was incubated in an incubator for 72 hours (37° C., 5% CO2).
3) 50 to 100 μL of CellTiter-Glo reagent was added to each well. Then, the culture plate was shaken for 10 minutes, and left to stand at room temperature for 10 minutes.
4) The chemiluminescence signal values of each plate were determined by a microplate reader.
5) The inhibition rates were calculated according to the chemiluminescence signal values.
6) The IC50 of the compound was obtained by curve fitting according to the inhibition rates at different concentrations.

Chain of wild-type EGFR enzyme (P00533 25-1210): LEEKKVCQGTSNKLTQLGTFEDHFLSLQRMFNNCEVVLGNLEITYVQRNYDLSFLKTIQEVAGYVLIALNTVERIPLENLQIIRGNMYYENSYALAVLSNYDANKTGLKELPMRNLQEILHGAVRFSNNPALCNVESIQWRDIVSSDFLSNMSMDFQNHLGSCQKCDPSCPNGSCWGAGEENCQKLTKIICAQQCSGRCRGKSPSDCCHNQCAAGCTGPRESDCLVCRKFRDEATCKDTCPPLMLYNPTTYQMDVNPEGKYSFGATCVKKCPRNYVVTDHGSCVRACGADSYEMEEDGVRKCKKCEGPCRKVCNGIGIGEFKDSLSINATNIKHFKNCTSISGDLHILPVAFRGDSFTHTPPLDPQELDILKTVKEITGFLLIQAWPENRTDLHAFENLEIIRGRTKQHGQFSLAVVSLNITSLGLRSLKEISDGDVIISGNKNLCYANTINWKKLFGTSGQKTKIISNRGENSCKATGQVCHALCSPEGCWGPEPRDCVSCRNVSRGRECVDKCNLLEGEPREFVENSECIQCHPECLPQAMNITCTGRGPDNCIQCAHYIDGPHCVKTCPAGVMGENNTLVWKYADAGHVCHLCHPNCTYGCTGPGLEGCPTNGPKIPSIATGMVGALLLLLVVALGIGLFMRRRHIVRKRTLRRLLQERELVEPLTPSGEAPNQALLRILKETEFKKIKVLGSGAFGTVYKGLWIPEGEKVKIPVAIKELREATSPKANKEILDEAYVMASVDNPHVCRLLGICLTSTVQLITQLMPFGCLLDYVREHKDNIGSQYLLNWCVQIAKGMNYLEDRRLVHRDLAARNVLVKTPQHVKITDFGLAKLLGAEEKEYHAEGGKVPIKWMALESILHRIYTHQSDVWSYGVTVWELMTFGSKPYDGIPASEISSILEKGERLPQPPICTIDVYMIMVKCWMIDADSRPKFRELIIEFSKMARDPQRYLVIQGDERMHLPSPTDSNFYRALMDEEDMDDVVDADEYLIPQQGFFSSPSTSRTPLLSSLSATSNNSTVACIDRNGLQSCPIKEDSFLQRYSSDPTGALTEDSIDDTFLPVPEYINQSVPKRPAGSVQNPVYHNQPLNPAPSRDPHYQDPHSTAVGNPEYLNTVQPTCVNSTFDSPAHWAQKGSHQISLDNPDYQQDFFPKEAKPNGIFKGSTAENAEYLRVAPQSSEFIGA
Chain of exon 20 T790M mutant-type EGFR enzyme (P00533 25-1210 T790M): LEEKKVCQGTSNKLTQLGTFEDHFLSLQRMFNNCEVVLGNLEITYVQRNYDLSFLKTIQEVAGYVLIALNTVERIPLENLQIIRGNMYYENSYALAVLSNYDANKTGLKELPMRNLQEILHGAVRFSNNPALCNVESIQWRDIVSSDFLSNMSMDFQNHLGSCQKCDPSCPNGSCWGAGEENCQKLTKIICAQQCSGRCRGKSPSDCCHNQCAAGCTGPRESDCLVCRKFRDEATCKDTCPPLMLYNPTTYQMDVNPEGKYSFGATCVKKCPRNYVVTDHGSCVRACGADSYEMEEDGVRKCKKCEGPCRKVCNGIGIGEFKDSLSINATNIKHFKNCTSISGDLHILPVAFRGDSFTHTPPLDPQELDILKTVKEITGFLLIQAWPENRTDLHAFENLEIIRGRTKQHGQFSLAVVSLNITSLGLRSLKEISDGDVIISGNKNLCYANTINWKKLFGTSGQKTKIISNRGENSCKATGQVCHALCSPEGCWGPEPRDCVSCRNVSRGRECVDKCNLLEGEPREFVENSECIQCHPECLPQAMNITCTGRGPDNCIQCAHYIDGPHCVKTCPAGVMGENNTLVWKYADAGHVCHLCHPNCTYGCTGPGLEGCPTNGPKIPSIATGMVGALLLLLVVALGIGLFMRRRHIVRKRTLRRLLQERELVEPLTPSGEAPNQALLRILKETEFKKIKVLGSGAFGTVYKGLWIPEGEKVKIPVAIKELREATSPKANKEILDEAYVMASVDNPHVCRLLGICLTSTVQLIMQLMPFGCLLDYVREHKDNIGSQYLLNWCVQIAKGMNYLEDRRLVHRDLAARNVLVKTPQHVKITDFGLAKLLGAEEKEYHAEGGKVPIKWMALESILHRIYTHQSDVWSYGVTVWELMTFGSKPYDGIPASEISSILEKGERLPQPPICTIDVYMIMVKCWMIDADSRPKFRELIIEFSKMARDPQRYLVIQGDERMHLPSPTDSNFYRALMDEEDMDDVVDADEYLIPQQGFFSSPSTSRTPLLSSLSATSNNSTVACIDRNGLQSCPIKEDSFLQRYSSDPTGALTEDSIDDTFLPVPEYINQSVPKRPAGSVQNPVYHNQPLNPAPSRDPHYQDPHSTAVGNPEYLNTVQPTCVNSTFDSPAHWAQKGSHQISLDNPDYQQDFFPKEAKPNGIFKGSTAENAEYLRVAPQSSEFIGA

SMILES: C=CC(=O)Nc1cc(Nc2nccc(-c3cn(C)c4ccccc34)n2)c(OC(F)F)cc1N(C)CCN(C)C [Example 1, N-(4-(difluoromethoxy)-2-((2-(dimethylamino)ethyl)(methyl)amino)-5-((4-(1-methyl-1H-indol-3-yl)pyrimidin-2-yl)amino)phenyl)acrylamide]
- IC50 [1]: 0.15 nM
- Selectivity of wild-type/mutant-type [1]: 13
- IC50 (wild-type EGFR enzyme): 2 nM

SMILES: C=CC(=O)Nc1cc(Nc2nccc(-c3cn(C)c4ccccc34)n2)c(OC(F)F)cc1N(C)CCN1CCOCC1=O [Example 3, N-(4-(difluoromethoxy)-2-(methyl(2-(3-carbonylmorpholino)ethyl)amino)-5-((4-(1-methyl-1H-indol-3-yl)pyrimidin-2-yl)amino)phenyl)acrylamide]
- IC50 [1]: 144 nM

SMILES: C=CC(=O)Nc1cc(Nc2nccc(-c3cn(C)c4cc(P(C)(C)=O)ccc34)n2)c(OC(F)F)cc1N(C)CCN(C)C [Example 11, N-(4-(difluoromethoxy)-2-((2-(dimethylamino)ethyl)(methyl)amino)-5-((4-(6-(dimethylphosphoryl)-1-methyl-1H-indol-3-yl)pyrimidin-2-yl)amino)phenyl)acrylamide]
- IC50 [1]: 2.74 nM
- Selectivity of wild-type/mutant-type [1]: 23.39
- IC50 (wild-type EGFR enzyme): 64.1 nM
- IC50 (NCI-H1975 cells): 24.6 nM

SMILES: C=CC(=O)Nc1cc(Nc2nccc(-c3cn(C4CC4)c4ccccc34)n2)c(OC(F)F)cc1N(C)CCN(C)C [Example 12, N-(5-((4-(1-cyclopropyl-1H-indol-3-yl)pyrimidin-2-yl)amino)-4-(difluoromethoxy)-2-((2-(dimethylamino)ethyl)(methyl)amino)phenyl)acrylamide]
- IC50 [1]: 0.32 nM
- Selectivity of wild-type/mutant-type [1]: 18.7
- IC50 (wild-type EGFR enzyme): 6.01 nM

SMILES: C=CC(=O)Nc1cc(Nc2nccc(-c3cn(C)c4ccc(C5CC5)cc34)n2)c(OC)cc1N(C)CCN(C)C [Example 23, N-(5-((4-(5-cyclopropyl-1-methyl-1H-indol-3-yl)pyrimidin-2-yl)amino)-2-((2-(dimethylamino)ethyl)(methyl)amino)-4-methoxyphenyl)acrylamide]
- IC50 [1]: 2.75 nM
- IC50 (NCI-H1975 cells): 46.8 nM

SMILES: C=CC(=O)Nc1cc(Nc2nccc(-c3cn(C)c4ccccc34)n2)c(OC)cc1N1CC2(COC2)C1 [Example 27, N-(4-methoxy-5-((4-(1-methyl-1H-indol-3-yl)pyrimidin-2-yl)amino)-2-(2-oxa-6-azaspiro[3,3]heptan-6-yl)phenyl)acrylamide]
- IC50 [1]: 50.2 nM

SMILES: C=CC(=O)Nc1cc(Nc2nccc(-c3cn(C)c4cc(F)cc(F)c34)n2)c(OC)cc1N(C)CCN(C)C [Example 29, N-(5-((4-(4,6-difluoro-1-methyl-1H-indol-3-yl)pyrimidin-2-yl)amino)-2-((2-(dimethylamino)ethyl)(methyl)amino)-4-methoxyphenyl)acrylamide]
- IC50 [1]: 16.5 nM

SMILES: C=CC(=O)Nc1cc(Nc2nccc(-n3ncc4cc(OC)ccc43)n2)c(OC)cc1N(C)CCN(C)C [Example 43, N-(2-((2-(dimethylamino)ethyl)(methyl)amino)-4-methoxy-5-((4-(5-methoxy-1H-indazol-1-yl)pyrimidin-2-yl)amino)phenyl)acrylamide]
- IC50 [1]: 0.38 nM
- Selectivity of wild-type/mutant-type [1]: 9.8
- IC50 (wild-type EGFR enzyme): 3.77 nM

SMILES: C=CC(=O)Nc1cc(Nc2nccc(-n3ncc4cc(C5CC5)ccc43)n2)c(OC)cc1N(C)CCN(C)C [Example 47, N-(5-((4-(5-cyclopropyl-1H-indazol-1-yl)pyrimidin-2-yl)amino)-2-((2-(dimethylamino)ethyl)(methyl)amino)-4-methoxyphenyl)acrylamide]
- IC50 [1]: 41.4 nM

SMILES: C=CC(=O)Nc1cc(Nc2ncc(C(F)(F)F)c(-n3ncc4cc(C#N)ccc43)n2)c(OC)cc1N(C)CCN(C)C [Example 52, N-(5-((4-(5-cyano-1H-indazol-1-yl)-5-(trifluoromethyl)pyrimidin-2-yl)amino)-2-((2-(dimethylamino)ethyl)(methyl)amino)-4-methoxyphenyl)acrylamide]
- IC50 [1]: 1.08 nM
- Selectivity of wild-type/mutant-type [1]: 107.1
- IC50 (wild-type EGFR enzyme): 116 nM
- IC50 (NCI-H1975 cells): 4.52 nM

SMILES: C=CC(=O)Nc1cc(Nc2nccc(-n3cnc4cc(OC)ccc43)n2)c(OC)cc1N(C)CCN(C)C [Example 59, N-(2-((2-(dimethylamino)ethyl)(methyl)amino)-4-methoxy-5-((4-(5-methoxy-1H-benzo[d]imidazol-1-yl)pyrimidin-2-yl)amino)phenyl)acrylamide]
- IC50 [1]: 0.35 nM
- Selectivity of wild-type/mutant-type [1]: 12.7
- IC50 (wild-type EGFR enzyme): 4.44 nM

SMILES: C=CC(=O)Nc1cc(Nc2nccc(-n3cnc4ccc(C#N)cc43)n2)c(OC)cc1N(C)CCN(C)C [Example 62, N-(5-((4-(6-cyano-1H-benzo[d]imidazol-1-yl)pyrimidin-2-yl)amino)-2-((2-(dimethylamino)ethyl)(methyl)amino)-4-methoxyphenyl)acrylamide]
- IC50 [1]: 8.32 nM
- Selectivity of wild-type/mutant-type [1]: 3.18
- IC50 (wild-type EGFR enzyme): 26.4 nM
- IC50 (NCI-H1975 cells): 26.3 nM

SMILES: C=CC(=O)Nc1cc(Nc2ncc(C(F)(F)F)c(-n3cnc4ccc(OC)cc43)n2)c(OC)cc1N(C)CCN(C)C [Example 68, N-(2-((2-(dimethylamino)ethyl)(methyl)amino)-4-methoxy-5-((4-(6-methoxy-1H-benzo[d]imidazol-1-yl)-5-(trifluoromethyl)pyrimidin-2-yl)amino)phenyl)acrylamide]
- IC50 [1]: 0.99 nM
- Selectivity of wild-type/mutant-type [1]: 193.03
- IC50 (wild-type EGFR enzyme): 191 nM

SMILES: C=CC(=O)Nc1cc(Nc2nccc(-n3c(C)nc4cc(OC)ccc43)n2)c(OC)cc1N(C)CCN(C)C [Example 71, N-(2-((2-(dimethylamino)ethyl)(methyl)amino)-4-methoxy-5-((4-(5-methoxy-2-methyl-1H-benzo[d]imidazol-1-yl)pyrimidin-2-yl)amino)phenyl)acrylamide]
- IC50 [1]: 28.1 nM

SMILES: C=CC(=O)Nc1cc(Nc2nccc(-n3c(C)nc4ccc(C#N)cc43)n2)c(OC)cc1N(C)CCN(C)C [Example 74, N-(5-((4-(6-cyano-2-methyl-1H-benzo[d]imidazol-1-yl)pyrimidin-2-yl)amino)-2-((2-(dimethylamino)ethyl)(methyl)amino)-4-methoxyphenyl)acrylamide]
- IC50 [1]: 26 nM

SMILES: C=CC(=O)Nc1cc(Nc2nccc(-c3cn(C)c4c(F)cc(F)cc34)n2)c(OC)cc1N(C)CCN(C)C [Example 89, N-(5-((4-(5,7-difluoro-1-methyl-1H-indol-3-yl)pyrimidin-2-yl)amino)-2-((2-(dimethylamino)ethyl)(methyl)amino)-4-methoxyphenyl)acrylamide]
- IC50 [1]: 8.57 nM
- Selectivity of wild-type/mutant-type [1]: 4.04
- IC50 (wild-type EGFR enzyme): 34.6 nM
- IC50 (NCI-H1975 cells): 112 nM

SMILES: C=CC(=O)Nc1cc(Nc2ncc(Cl)c(-n3nc(OC)c4cc(Cl)ccc43)n2)c(OC)cc1N(C)CCN(C)C [Example 108, N-(5-((5-chloro-4-(5-chloro-3-methoxy-1H-indazol-1-yl)pyrimidin-2-yl)amino)-2-((2-(dimethylamino)ethyl)(methyl)amino)-4-methoxyphenyl)acrylamide]
- IC50 [1]: 1.33 nM
- Selectivity of wild-type/mutant-type [1]: 89.47
- IC50 (wild-type EGFR enzyme): 119 nM

SMILES: C=CC(=O)Nc1cc(Nc2ncc(C(F)(F)F)c(-n3nc(OC)c4cc(Cl)ccc43)n2)c(OC)cc1N(C)CCN(C)C [Example 109, N-(5-((4-(5-chloro-3-methoxy-1H-indazol-1-yl)-5-(trifluoromethyl)pyrimidin-2-yl)amino)-2-((2-(dimethylamino)ethyl)(methyl)amino)-4-methoxyphenyl)acrylamide]
- IC50 [1]: 5.18 nM
- Selectivity of wild-type/mutant-type [1]: 74.79
- IC50 (wild-type EGFR enzyme): 387 nM

SMILES: C=CC(=O)Nc1cc(Nc2nccc(-n3nc(OC)c4cc(Cl)ccc43)n2)c(OC)cc1N(C)CCN(C)C [Example 110, N-(5-((4-(5-chloro-3-methoxy-1H-indazol-1-yl)pyrimidin-2-yl)amino)-2-((2-(dimethylamino)ethyl)(methyl)amino)-4-methoxyphenyl)acrylamide]
- IC50 [1]: 1.06 nM
- Selectivity of wild-type/mutant-type [1]: 9.10
- IC50 (wild-type EGFR enzyme): 9.65 nM

SMILES: C=CC(=O)Nc1cc(Nc2ncc(Cl)c(-n3nc(CCC)c4cc(C#N)ccc43)n2)c(OC)cc1N(C)CCN(C)C [Example 116, N-(5-((5-chloro-4-(5-cyano-3-propyl-1H-indazol-1-yl)pyrimidin-2-yl)amino)-2-((2-(dimethylamino)ethyl)(methyl)amino)-4-methoxyphenyl)acrylamide]
- IC50 [1]: 0.8 nM
- Selectivity of wild-type/mutant-type [1]: 24.45
- IC50 (wild-type EGFR enzyme): 19.6 nM
